Columns and labels:
[1] = test system: melatonin concentration in the plasma; test: Evaluation of melatonin secretion promoting effect (plasma melatonin, 24-week oral ingestion); type: in vivo, human; settings: for melatonin concentration in the plasma, 0 weeks (before ingestion): baseline; for melatonin concentration in the plasma, 0 weeks (before ingestion) / melatonin concentration in the plasma, 24 weeks (after ingestion) / melatonin concentration in the plasma, Change rate (24 weeks - 0 weeks): mean±SD
Description: In order to confirm a change in the melatonin quantity before and after ingestion of the nicotinamide mononucleotide, a test was conducted on healthy males and females aged 50 to 70 years.
As a sample of Working Example 1, a capsule formulation containing the nicotinamide mononucleotide and starch (100 mg (low dose) and 200 mg (high dose) of the nicotinamide mononucleotide in 4 capsules) (manufactured by SHINKOWA PHARMACEUTICAL Co., Ltd.) was used.
(§1) Each group consisting of five healthy males and females aged 50 to 70 years in an unbiased age group ingested the above low dose capsule formulation once a day by 4 capsules for 24 weeks (total 10 subjects, a low dose group: 100 mg/daily ingestion). On the other hand, each group consisting of five healthy males and females aged 50 to 70 years in the unbiased age group ingested the above high dose capsule formulation once a day by 4 capsules for 24 weeks (total 10 subjects, a high dose group: 200 mg/daily ingestion). In order to conduct appropriate evaluations, those who had been regularly using medical products for chronic diseases, those who had been consuming healthy foods that may affect clinical research, and those who were currently participating in other clinical researches or clinical trials, or had participated in other clinical researches or clinical trials within the last three months were excluded from the subject for the evaluation. The capsule formulations were ingested at 10 am (between meals and fasting state) together with water or lukewarm water (oral administration).
Measurement of the melatonin quantity in plasma was conducted by requesting the measurement to an external public organization according to a usual method. FIGS. 2a to 2c indicates transitions of the melatonin concentration (pg/ml) in the plasma for 24 weeks. FIG. 2a represents the transitions of the whole subjects; FIG. 2b represents the transitions of the male subjects; FIG. 2c represents the transitions of the female subjects. FIGS. 3a to 3c indicates change rates (%) of the blood melatonin concentration up to 24 weeks when the nicotinamide mononucleotide was orally administered to the subjects for 24 weeks. FIG. 3a represents the change rates of the whole subjects; FIG. 3b represents the change rates of the male subjects; FIG. 3c represents the change rates of the female subjects. Further, Table 1 indicates the numerical values of the melatonin concentration (pg/ml) in the plasma before the ingestion of the nicotinamide mononucleotide (0 weeks) and after the ingestion of the nicotinamide mononucleotide (24 weeks). In addition, the numerical values represent mean values±standard deviation.

[2] = test system: free thyroxine concentration in the plasma; test: Evaluation of free thyroxine (T4) secretion promoting effect (plasma free thyroxine, 24-week oral ingestion); type: in vivo, human; settings: for free thyroxine concentration in the plasma, 0 weeks (before ingestion) / free thyroxine concentration in the plasma, 24 weeks (after ingestion) / free thyroxine concentration in the plasma, Change rate (24 weeks - 0 weeks): High Dose Group (200 mg/daily, oral), mean±SD; for free thyroxine concentration in the plasma, 0 weeks (before ingestion): baseline
Description: In order to confirm a change in the free thyroxine quantity before and after ingestion of the nicotinamide mononucleotide, a test was conducted on healthy males and females aged 50 to 70 years.
As a sample of Working Example 5, a capsule formulation containing the nicotinamide mononucleotide and starch (200 mg of the nicotinamide mononucleotide in 4 capsules) (manufactured by SHINKOWA PHARMACEUTICAL Co., Ltd.) was used.
as §1, with “above” for “above low dose capsule formulation once a day by 4 capsules for 24 weeks (total 10 subjects, a low dose group: 100 mg/daily ingestion). On the other hand, each group consisting of five healthy males and females aged 50 to 70 years in the unbiased age group ingested the above”, “subjects,” for “subjects, a high dose group:”, “trials” for “trials,”
Measurement of the free thyroxine quantity in the plasma was conducted by requesting the measurement to an external public organization according to a usual method. FIGS. 10a to 10c indicate transitions of the free thyroxine concentration (ng/dl) in the plasma for 24 weeks. FIG. 10a represents the transitions of the whole subjects; FIG. 10b represents the transitions of the male subjects; FIG. 10c represents the transitions of the female subjects. Further, FIGS. 11a to 11c indicate change rates (%) of the blood free thyroxine concentration up to 24 weeks when the nicotinamide mononucleotide was orally administered to the subjects for 24 weeks. FIG. 11a represents the change rates of the whole subjects; FIG. 11b represents the change rates of the male subjects; FIG. 11c represents the change rates of the female subjects. Further, Table 5 indicates the numerical values of the free thyroxine concentration (ng/dl) in the plasma before the ingestion of the nicotinamide mononucleotide (0 weeks) and after the ingestion of the nicotinamide mononucleotide (24 weeks). Note that the numerical values represent mean values±standard deviation.

[3] = Female, High Dose Group (200 mg/daily, oral)
[4] = Female, Low Dose Group (100 mg/daily, oral)
[5] = Male, High Dose Group (200 mg/daily, oral)
[6] = Male, Low Dose Group (100 mg/daily, oral)
[7] = Whole Subjects, High Dose Group (200 mg/daily, oral)
[8] = Whole Subjects, Low Dose Group (100 mg/daily, oral)

## NC(=O)c1ccc[n+]([C@@H]2O[C@H](COP(=O)([O-])O)[C@@H](O)[C@H]2O)c1 [nicotinamide mononucleotide]
[1]; [3]
  melatonin concentration in the plasma, 0 weeks (before ingestion): 5.77 ± 3.00 pg/mL
  melatonin concentration in the plasma, 24 weeks (after ingestion): 11.81 ± 8.17 pg/mL
  melatonin concentration in the plasma, Change rate (24 weeks - 0 weeks): 6.03 ± 5.90 pg/mL
[1]; [4]
  melatonin concentration in the plasma, 0 weeks (before ingestion): 7.15 ± 4.51 pg/mL
  melatonin concentration in the plasma, 24 weeks (after ingestion): 9.37 ± 4.85 pg/mL
  melatonin concentration in the plasma, Change rate (24 weeks - 0 weeks): 2.21 ± 3.19 pg/mL
[1]; [5]
  melatonin concentration in the plasma, 0 weeks (before ingestion): 3.82 ± 1.41 pg/mL
  melatonin concentration in the plasma, 24 weeks (after ingestion): 6.68 ± 4.04 pg/mL
  melatonin concentration in the plasma, Change rate (24 weeks - 0 weeks): 2.86 ± 3.10 pg/mL
[1]; [6]
  melatonin concentration in the plasma, 0 weeks (before ingestion): 2.76 ± 1.71 pg/mL
  melatonin concentration in the plasma, 24 weeks (after ingestion): 6.20 ± 3.60 pg/mL
  melatonin concentration in the plasma, Change rate (24 weeks - 0 weeks): 3.44 ± 3.57 pg/mL
[1]; [7]
  melatonin concentration in the plasma, 0 weeks (before ingestion): 4.80 ± 2.44 pg/mL
  melatonin concentration in the plasma, Change rate (24 weeks - 0 weeks): 4.45 ± 4.75 pg/mL
[1]; [8]
  melatonin concentration in the plasma, 0 weeks (before ingestion): 4.96 ± 3.96 pg/mL
  melatonin concentration in the plasma, 24 weeks (after ingestion): 7.78 ± 4.36 pg/mL
  melatonin concentration in the plasma, Change rate (24 weeks - 0 weeks): 2.82 ± 3.26 pg/mL
[1]; as a whole, both the low dose group and the high dose group, p<0.05
  melatonin concentrations in the plasma compared to before ingestion, statistical significance: a significant difference was observed
[1]; oral, 100 or 200 mg/daily, 24 weeks, FIGS. 2a-2c, 3a-3c
  melatonin concentrations in plasma, effect of ingestion (in words): increased
[2]; Female
  free thyroxine concentration in the plasma, 0 weeks (before ingestion): 1.10 ± 0.19 ng/dL
  free thyroxine concentration in the plasma, 24 weeks (after ingestion): 1.13 ± 0.09 ng/dL
  free thyroxine concentration in the plasma, Change rate (24 weeks - 0 weeks): 0.03 ± 012 ng/dL
[2]; Male
  free thyroxine concentration in the plasma, 0 weeks (before ingestion): 1.15 ± 0.19 ng/dL
  free thyroxine concentration in the plasma, 24 weeks (after ingestion): 1.22 ± 0.17 ng/dL
  free thyroxine concentration in the plasma, Change rate (24 weeks - 0 weeks): 0.07 ± 0.15 ng/dL
[2]; Whole Subjects
  free thyroxine concentration in the plasma, 0 weeks (before ingestion): 1.13 ± 0.18 ng/dL
  free thyroxine concentration in the plasma, 24 weeks (after ingestion): 1.18 ± 0.14 ng/dL
  free thyroxine concentration in the plasma, Change rate (24 weeks - 0 weeks): 0.05 ± 0.13 ng/dL
[2]; oral, 200 mg/daily, 24 weeks, FIGS. 10a-10c, 11a-11c
  free thyroxine concentrations in the plasma, effect of ingestion (in words): increased

From patent US20220031596A1, “ANTI-AGING AGENT AND ANTI-AGING METHOD” (priority 2018, published 2022)
